From patent US7713994B2 (Wyeth LLC, priority 2005, dated 2010)
Read-outs that look alike come from different tables or passages of the source.

How the values were obtained:
cyclin D1/cdk 4 enzyme = target: T1, cyclin D1/cdk 4 enzyme (Homo sapiens, UniProt P11802); assay: CDK4 ELISA kinase assay (phospho-Rb ser 795 detection); type: biochemical
T1 construct: made in house; host or cells: Sf9 insect cells, recombinant baculovirus
Procedure, shortened: (§1)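 GST-Rb C-terminal fragment coated on wells; kinase reaction: 200 μM ATP, 0.5 mg/ml BSA, HEPES pH 7.5, 10 mM MgCl2, baculovirus/Sf9 cyclin-CDK, 30° C, 1 h. Readout anti-phospho-Rb Ser795, HRP, TMB, A450. Test compound 10 ug/ml final.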

cyclin E/CDK2 enzyme = target: T2, cyclin E/CDK2 enzyme (Homo sapiens, UniProt P24941); assay: CDK2 ELISA kinase assay (phospho-Rb ser 795 detection); type: biochemical
T2 construct: made in house; host or cells: Sf9 insect cells, recombinant baculovirus
Procedure, shortened: as §1

cyclin B/CDK1 enzyme = target: T3, cyclin B/CDK1 enzyme (Homo sapiens, UniProt P06493); assay: CDK1 ELISA kinase assay (phospho-Rb ser 795 detection); type: biochemical
T3 construct: purchased New England BioLabs; host or cells: Sf9 insect cells, recombinant baculovirus
Procedure, shortened: as §1

BT474 = assay: Cytotoxicity assay (SRB), BT474; type: cell-based
Procedure, shortened: (§2)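 Seeding: BT474 12000, HCT-116 4000, LoVo 6000, MCF-7 6000 cells/well; overnight attachment, 37 °C, 7% CO2. Drug exposure 3 d (BT474 6 d), RPMI 1640 + 5% FBS. Readout: TCA fix, 0.4% SRB, Tris solubilisation, A540.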

HCT-116 = assay: Cytotoxicity assay (SRB), HCT-116; type: cell-based; conditions: Homo sapiens, HCT-116, 72 h, HCT116 cells, SRB, read-out: In Vitro Cellular Activity IC50 HCT116
Procedure, shortened: as §2

LoVo = assay: Cytotoxicity assay (SRB), LoVo; type: cell-based; conditions: Homo sapiens, LoVo, 72 h, LoVo cells, SRB, read-out: In Vitro Cellular Activity IC50 LOVO
Procedure, shortened: as §2

MCF-7 = assay: Cytotoxicity assay (SRB), MCF-7; type: cell-based; conditions: Homo sapiens, MCF7, 72 h, MCF-7 cells, SRB, read-out: In Vitro Cellular Activity IC50 MCF-7
Procedure, shortened: as §2

[1] = In Vitro Enzyme Assay, cyclin D1/cdk 4, read-out: CDK4 IC50
[2] = In Vitro Enzyme Assay, cyclin E/CDK2, read-out: CDK2 IC50
[3] = In Vitro Enzyme Assay, cyclin B/CDK1, read-out: CDK1 IC50
[4] = Homo sapiens, BT-474, 144 h, BT474 cells, 6 days, SRB; read-out: In Vitro Cellular Activity IC50 BT474
[5] = In Vitro Enzyme Assays, 200 μM ATP, read-out: CDK4 IC50
[6] = In Vitro Enzyme Assays, read-out: CDK2 IC50
[7] = In Vitro Enzyme Assays, read-out: CDK1 IC50
[8] = Homo sapiens, BT-474, 144 h, BT474 cells, SRB, 6 days; read-out: In Vitro Cellular Activity IC50 BT474

T3 sequence (P06493 whole entry): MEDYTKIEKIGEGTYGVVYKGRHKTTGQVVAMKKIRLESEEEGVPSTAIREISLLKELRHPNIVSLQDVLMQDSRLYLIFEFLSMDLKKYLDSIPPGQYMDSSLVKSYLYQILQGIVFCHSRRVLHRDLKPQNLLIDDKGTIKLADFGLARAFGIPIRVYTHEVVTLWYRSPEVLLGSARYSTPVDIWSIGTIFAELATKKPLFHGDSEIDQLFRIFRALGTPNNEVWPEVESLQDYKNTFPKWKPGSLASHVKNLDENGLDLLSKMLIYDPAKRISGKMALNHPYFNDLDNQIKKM
T3 sequence (P14635 whole entry partner): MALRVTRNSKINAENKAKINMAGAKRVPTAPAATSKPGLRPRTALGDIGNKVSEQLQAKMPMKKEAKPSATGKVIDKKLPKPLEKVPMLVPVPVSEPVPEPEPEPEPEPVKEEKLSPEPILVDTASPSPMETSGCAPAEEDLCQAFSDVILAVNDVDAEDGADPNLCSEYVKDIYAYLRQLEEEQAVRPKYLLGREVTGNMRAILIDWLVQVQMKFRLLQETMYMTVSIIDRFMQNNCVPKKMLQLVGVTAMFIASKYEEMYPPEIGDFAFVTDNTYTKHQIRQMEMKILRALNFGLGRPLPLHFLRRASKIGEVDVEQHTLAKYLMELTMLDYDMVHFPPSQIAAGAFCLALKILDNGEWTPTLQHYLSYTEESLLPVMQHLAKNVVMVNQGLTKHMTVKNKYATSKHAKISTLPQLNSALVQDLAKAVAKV
T1 sequence (P11802 whole entry, species assumed): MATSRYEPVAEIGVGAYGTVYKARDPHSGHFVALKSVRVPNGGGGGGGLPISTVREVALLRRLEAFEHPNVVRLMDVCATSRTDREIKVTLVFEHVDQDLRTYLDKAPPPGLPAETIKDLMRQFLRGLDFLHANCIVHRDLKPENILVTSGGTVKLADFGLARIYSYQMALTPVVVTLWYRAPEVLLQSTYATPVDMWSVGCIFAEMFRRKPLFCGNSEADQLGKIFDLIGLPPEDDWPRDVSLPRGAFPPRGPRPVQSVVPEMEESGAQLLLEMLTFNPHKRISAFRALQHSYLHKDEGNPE
T1 sequence (P24385 whole entry partner, species assumed): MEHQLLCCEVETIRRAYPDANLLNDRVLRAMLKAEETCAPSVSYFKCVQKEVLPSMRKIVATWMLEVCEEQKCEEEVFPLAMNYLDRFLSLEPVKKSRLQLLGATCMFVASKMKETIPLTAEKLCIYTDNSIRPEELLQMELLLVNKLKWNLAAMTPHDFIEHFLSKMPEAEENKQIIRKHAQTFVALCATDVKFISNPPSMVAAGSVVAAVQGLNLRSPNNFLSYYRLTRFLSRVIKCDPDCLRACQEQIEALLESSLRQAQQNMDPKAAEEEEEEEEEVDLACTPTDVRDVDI

Compound	IC50 (cyclin D1/cdk 4 enzyme; [1]) [µM]	IC50 (cyclin E/CDK2 enzyme; [2]) [µM]	IC50 (cyclin B/CDK1 enzyme; [3]) [µM]	IC50 (BT474; [4]) [µM]	IC50 (HCT-116; 3 days) [µM]	IC50 (LoVo; 3 days) [µM]	IC50 (MCF-7; 3 days) [µM]	melting point	IC50 (cyclin D1/cdk 4 enzyme; [5]) [µM]	IC50 (cyclin E/CDK2 enzyme; [6]) [µM]	IC50 (cyclin B/CDK1 enzyme; [7]) [µM]	IC50 (BT474; [8]) [µM]	IC50 (HCT-116; three days) [µM]	IC50 (LoVo; three days) [µM]	IC50 (MCF-7; three days) [µM]
COC[C@@H]1CCCN1Cc1ccc(N/C=C2\C(=O)NC(=O)c3ccc(I)cc32)nc1 [Example 478, (4Z)-6-Iodo-4-{[(5-{[(2S)-2-(methoxymethyl)pyrrolidin-1-yl]methyl}pyridin-2-yl)amino]methylene}isoquinoline-1,3(2H,4H)-dione]	17.6	> 50	> 50	> 50	24.2	46.8	44.8	185 to 186 °C							
CCCOc1ccc(CN/C=C2\C(=O)NC(=O)c3cc(OC)c(Br)cc32)cc1O [Example 246, 6-Bromo-4-[(3-hydroxy-4-propoxy-benzylamino)-methylene]-7-methoxy-4H-isoquinoline-1,3-dione]								212 to 214 °C (dec.)	28.3	> 50	> 50	2	22	37	> 50
CC1CCCN1Cc1ccc(N/C=C2\C(=O)NC(=O)c3ccc(-c4ccc(F)cc4)cc32)cc1 (stereo not shown) [Example 289, (4Z)-6-(4-Fluorophenyl)-4-[({4-[(2-methylpyrrolidin-1-yl)methyl]phenyl}amino)-methylene]isoquinoline-1,3(2H,4H)-dione]								165 to 166 °C	0.31	> 50	> 50	1.3	2.2	7.4	0.9
COc1ccc(CNC=C2C(=O)NCc3ccccc32)cc1O [Example 160, 4-[(3-Hydroxy-4-methoxy-benzylamino)-methylene]-1,4-dihydro-2H-isoquinoline-3-one]								177 to 179 °C (dec.)	20.4	31	> 50	> 50	> 50	43	30
CN1CCC(c2ccc(N/C=C3\C(=O)NC(=O)c4ccc(I)cc43)cc2)CC1 [Example 239, (4Z)-6-Iodo-4-({[4-(1-methylpiperidin-4-yl)phenyl]amino}methylene)isoquinoline-1,3(2H,4H)-dione]								215 to 216 °C	0.31	4.2	> 50	7.9	2.5	7.7	4
CC(=O)N1CCC(c2ccc(N/C=C3\C(=O)NC(=O)c4ccc(-c5ccoc5)cc43)cc2)CC1 [Example 351, (4Z)-4-({[4-(1-Acetylpiperidin-4-yl)phenyl]amino}methylene)-6-(3-furyl)isoquinoline-1,3(2H,4H)-dione]								178 to 179 °C	0.13	> 50	> 50	1.1	3	2.7	2.1
COC(=O)Oc1ccc(CN/C=C2\C(=O)NC(=O)c3ccc(Br)cc32)cc1OC(=O)OC [Example 76, Carbonic acid 5-{[(6-bromo-1,3-dioxo-2,3-dihydro-1H-isoquinolin-4-ylidenemethyl)-amino]-methyl}-2-methoxycarbonyloxy-phenyl ester methyl ester]								239 to 240 °C	0.39	> 50	40.7	5.5	5	5.9	9.1
Nc1ccc(CN/C=C2\C(=O)NC(=O)c3ccc(I)cc32)cc1O [Example 122, (4Z)-4-{[(4-Amino-3-hydroxybenzyl)amino]methylene}-6-iodoisoquinoline-1,3(2H,4H)-dione]								250 to 251 °C	0.04	1.6	16.1	5.2	7.5	9.9	17
COC[C@@H]1CCCN1c1ccc(CN/C=C2\C(=O)NC(=O)c3ccc(I)cc32)cc1O [Example 523, (4Z)-4-[({3-Hydroxy-4-[(2S)-2-(methoxymethyl)pyrrolidin-1-yl]benzyl}amino)methylene]-6-iodoisoquinoline-1,3(2H,4H)-dione]	0.2	31.1	> 50	5.7	6.4	6.2	7.3	120 to 121 °C							
O=C1NC(=O)c2ccc(-c3ccsc3)cc2C1=NNc1ccc(CN2CCCCC2)cc1 [Example 152, 4-[(4-Piperidin-1-ylmethyl-phenyl)-hydrazono]-6-thiophen-3-yl-4H-isoquinoline-1,3-dione]								164 to 168 °C (dec.)	0.06	> 50	36.3	3.4	2.8	6.6	6.2
O=C1NC(=O)c2ccc(Br)cc2/C1=C/NCc1cc(O)cc(O)c1 [Example 64]								318 to 319 °C	0.015	0.62	16.5	28	> 50	> 50	> 50
CO[C@H]1CCN(Cc2ccc(N/C=C3\C(=O)NC(=O)c4ccc(-c5ccc(F)cc5)cc43)cc2)C1 [Example 265, (4Z)-6-(4-Fluorophenyl)-4-{[(4-{[(3S)-3-methoxypyrrolidin-1-yl]methyl}phenyl)amino]methylene}isoquinoline-1,3(2H,4H)-dione]								145 to 146 °C	0.3	> 50	> 50	1.7	2	2.8	1.4
COc1coc(CNC=C2C(=O)NC(=O)c3ccc(-n4cccc4)cc32)cc1=O [Example 317, 4-{[(5-Methoxy-4-oxo-4H-pyran-2-ylmethyl)-amino]-methylene}-6-pyrrol-1-yl-4H-isoquinoline-1,3-dione]								251 to 254 °C (dec.)	0.04	> 50	> 50	5.2	12	4.7	8.4
COc1ccc(-c2ccc3c(c2)/C(=C/Nc2cnc(N4C[C@@H](C)N[C@@H](C)C4)c(C)c2)C(=O)NC3=O)cc1 [Example 357, (4Z)-4-[({6-[(3R,5S)-3,5-Dimethylpiperazin-1-yl]-5-methylpyridin-3-yl}amino)methylene]-6-(4-methoxyphenyl)isoquinoline-1,3(2H,4H)-dione]								213 to 214 °C	31	> 50	> 50	2.5	1.1	2.8	1.6
O=C1NC(=O)c2ccc(I)cc2/C1=C/Nc1ccc(Cn2ccnc2)cc1 [Example 273, (4Z)-4-({[4-(1H-Imidazol-1-ylmethyl)phenyl]amino}methylene)-6-iodoisoquinoline-1,3(2H,4H)-dione]								275 to 276 °C	24.7	12.3	> 50	7.5	3	7.9	13
O=C1NC(=O)c2ccc(Br)cc2/C1=C/N1CCN(CCN2CCOCC2)CC1 [Example 105, (4Z)-6-Bromo-4-{[4-(2-morpholin-4-ylethyl)piperazin-1-yl]methylene}isoquinoline-1,3(2H,4H)-dione]								156 to 156.5 °C	24.3	> 50	> 50	36.9	42.6	42.9	> 50
O=C1NC(=O)c2ccc(Br)cc2/C1=C/NCc1ccc(OC(F)F)c(O)c1 [Example 180]								256 to 258 °C	0.07	> 50	> 50	5.1	5.9	6.2	15
